Assay results published in ChEMBL document CHEMBL5500393, “Discovery and Optimization of Novel SaFabI Inhibitors as Specific Therapeutic Agents for MRSA Infection” (J Med Chem, 2024).

Columns and labels:
[1] = system: Enterococcus faecium; assay: Antimicrobial activity against Enterococcus faecium ATCC19434 measured after 24 hrs by CLSI protocol based microdilution method; format: functional
[2] = target: T1, Enoyl-[acyl-carrier-protein] reductase [NADPH] FabI (Staphylococcus aureus) (UniProt Q6GI75); assay: Inhibition of N-terminal his 6 tagged Staphylococcus aureus Fabi (1 to […] residues) expressed in Escherichia coli BL21 at 10 uM incubated for 30 mins in presence of NADPH by fluorescence based microplate reader analysis relative to control
T1 sequence (whole entry): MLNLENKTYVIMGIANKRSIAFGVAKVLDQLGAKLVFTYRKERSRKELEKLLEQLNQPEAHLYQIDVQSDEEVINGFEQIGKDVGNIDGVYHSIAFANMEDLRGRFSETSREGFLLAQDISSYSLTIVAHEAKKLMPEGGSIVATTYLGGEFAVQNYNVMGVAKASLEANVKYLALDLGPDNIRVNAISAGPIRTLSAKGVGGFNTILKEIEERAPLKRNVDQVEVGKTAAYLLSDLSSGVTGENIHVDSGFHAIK

[3] = system: Enterococcus faecalis; assay: Antimicrobial activity against Enterococcus faecalis ATCC29212 measured after 24 hrs by CLSI protocol based microdilution method; format: functional
[4] = system: Staphylococcus aureus; assay: Antimicrobial activity against methicillin-susceptible Staphylococcus aureus ATCC25923 measured after 24 hrs by CLSI protocol based microdilution method; format: functional
[5] = system: Staphylococcus aureus; assay: Antimicrobial activity against […] Staphylococcus aureus NRS271 measured after 24 hrs by CLSI protocol based microdilution method; format: functional
[6] = target: T1, Enoyl-[acyl-carrier-protein] reductase [NADPH] FabI (Staphylococcus aureus); assay: Inhibition of N-terminal his 6 tagged Staphylococcus aureus Fabi (1 to […] residues) expressed in Escherichia coli BL21 at 1 uM incubated for 30 mins in presence of NADPH by fluorescence based microplate reader analysis relative to control
[7] = system: Candida albicans; assay: Antimicrobial activity against Candida albicans SC5314 measured after 48 hrs by CLSI protocol based microdilution method; format: functional
[8] = system: Escherichia coli; assay: Antimicrobial activity against Escherichia coli ATCC25922 measured after 24 hrs by CLSI protocol based microdilution method; format: functional
[9] = system: Staphylococcus aureus; assay: Antimicrobial activity against methicillin-susceptible Staphylococcus aureus ATCC29213 measured after 24 hrs by CLSI protocol based microdilution method; format: functional
[10] = system: Staphylococcus aureus; assay: Antimicrobial activity against […] Staphylococcus aureus USA300 measured after 24 hrs by CLSI protocol based microdilution method; format: functional
[11] = system: Staphylococcus aureus; assay: Antimicrobial activity against […] Staphylococcus aureus ATCC33591 measured after 24 hrs by CLSI protocol based microdilution method; format: functional
[12] = system: Pseudomonas aeruginosa; assay: Antimicrobial activity against Pseudomonas aeruginosa PAO1 measured after 24 hrs by CLSI protocol based microdilution method; format: functional
[13] = system: Staphylococcus aureus; assay: Antimicrobial activity against […] Staphylococcus aureus ATCC43300 measured after 24 hrs by CLSI protocol based microdilution method; format: functional
[14] = system: Acinetobacter baumannii; assay: Antimicrobial activity against Acinetobacter baumannii ATCC19606 measured after 24 hrs by CLSI protocol based microdilution method; format: functional

Row | Compound | MIC [1] | inhibition [2] | MIC [3] | MIC [4] | MIC [5] | inhibition [6] | MIC [7] | MIC [8] | MIC [9] | MIC [10] | MIC [11] | MIC [12] | MIC [13] | MIC [14]
1 | Cc1c(N)cccc1N1CC(c2nc3ccccc3n2C)CC1=O (centres undefined) | > 32 µg/mL | 50.2% | > 32 µg/mL | > 32 µg/mL | > 32 µg/mL | 6.1% | > 32 µg/mL | > 32 µg/mL | > 32 µg/mL | > 32 µg/mL | > 32 µg/mL | > 32 µg/mL | > 32 µg/mL | > 32 µg/mL
2 | Cn1c(CCC(=O)NCCNC(=O)Cc2ccccc2)nc2ccccc21 | > 32 µg/mL | 21.4% | > 32 µg/mL | > 32 µg/mL | > 32 µg/mL | 3.6% | > 32 µg/mL | > 32 µg/mL | > 32 µg/mL | > 32 µg/mL | > 32 µg/mL | > 32 µg/mL | > 32 µg/mL | > 32 µg/mL
3 | O=C1CC(c2nc3ccccc3[nH]2)CN1c1cccc2ccccc12 (centres undefined) | > 32 µg/mL | 15.4% | > 32 µg/mL | > 32 µg/mL | > 32 µg/mL | 3.2% | > 32 µg/mL | > 32 µg/mL | > 32 µg/mL | > 32 µg/mL | > 32 µg/mL | > 32 µg/mL | > 32 µg/mL | > 32 µg/mL
4 | Cn1c(C2CC(=O)N(c3ccc4ncsc4c3)C2)nc2ccccc21 (centres undefined) | > 32 µg/mL | 43.4% | > 32 µg/mL | > 32 µg/mL | > 32 µg/mL | 4.1% | > 32 µg/mL | > 32 µg/mL | > 32 µg/mL | > 32 µg/mL | > 32 µg/mL | > 32 µg/mL | > 32 µg/mL | > 32 µg/mL
5 | Cc1cccc(N2CCC(c3nc4ccccc4n3C)CC2)c1C | > 32 µg/mL | 2% | > 32 µg/mL | > 32 µg/mL | > 32 µg/mL | 2.8% | > 32 µg/mL | > 32 µg/mL | > 32 µg/mL | > 32 µg/mL | > 32 µg/mL | > 32 µg/mL | > 32 µg/mL | > 32 µg/mL
6 | CC(=O)c1ccc(N2CC(c3nc4ccccc4n3C)CC2=O)cc1Cl (centres undefined) | > 32 µg/mL | 3.8% | > 32 µg/mL | > 32 µg/mL | > 32 µg/mL | 5.5% | > 32 µg/mL | > 32 µg/mL | > 32 µg/mL | > 32 µg/mL | > 32 µg/mL | > 32 µg/mL | > 32 µg/mL | > 32 µg/mL
7 | Cn1c(C2CC(=O)N(c3cccc(Br)c3OCC(F)(F)F)C2)nc2ccccc21 (centres undefined) | > 32 µg/mL | 18.8% | > 32 µg/mL | > 32 µg/mL | > 32 µg/mL | 2.1% | > 32 µg/mL | > 32 µg/mL | > 32 µg/mL | > 32 µg/mL | > 32 µg/mL | > 32 µg/mL | > 32 µg/mL | > 32 µg/mL
8 | Cn1c(C2CC(=O)N(c3ccc(Cl)cc3)C2)nc2ccccc21 (centres undefined) | > 32 µg/mL | 35.7% | > 32 µg/mL | > 32 µg/mL | > 32 µg/mL | 2.2% | > 32 µg/mL | > 32 µg/mL | > 32 µg/mL | > 32 µg/mL | > 32 µg/mL | > 32 µg/mL | > 32 µg/mL | > 32 µg/mL
9 | Cn1c(C2CC(=O)N(c3noc4ccccc34)C2)nc2ccccc21 (centres undefined) | > 32 µg/mL | 11.6% | > 32 µg/mL | > 32 µg/mL | > 32 µg/mL | 2.5% | > 32 µg/mL | > 32 µg/mL | > 32 µg/mL | > 32 µg/mL | > 32 µg/mL | > 32 µg/mL | > 32 µg/mL | > 32 µg/mL
10 | Cc1cccc(NC(=O)CCNC(=O)c2nc3ccccc3n2C)c1C | > 32 µg/mL | 6.6% | > 32 µg/mL | > 32 µg/mL | > 32 µg/mL | 4.8% | > 32 µg/mL | > 32 µg/mL | > 32 µg/mL | > 32 µg/mL | > 32 µg/mL | > 32 µg/mL | > 32 µg/mL | > 32 µg/mL
11 | Cn1c(C2CC(=O)N(c3ccc4ccccc4c3)C2)nc2ccccc21 (centres undefined) | > 32 µg/mL | 51.7% | > 32 µg/mL | > 32 µg/mL | > 32 µg/mL | 2.8% | > 32 µg/mL | > 32 µg/mL | > 32 µg/mL | > 32 µg/mL | > 32 µg/mL | > 32 µg/mL | > 32 µg/mL | > 32 µg/mL
12 | CC(=O)c1ccc(N2CC(c3nc4ccccc4n3C)CC2=O)cc1 (centres undefined) | > 32 µg/mL | 10.1% | > 32 µg/mL | > 32 µg/mL | > 32 µg/mL | 2.8% | > 32 µg/mL | > 32 µg/mL | > 32 µg/mL | > 32 µg/mL | > 32 µg/mL | > 32 µg/mL | > 32 µg/mL | > 32 µg/mL
13 | Cc1cccc(NC(=O)CCc2nc3ccccc3n2C)c1C | > 32 µg/mL | 10% | > 32 µg/mL | > 32 µg/mL | > 32 µg/mL | 4.5% | > 32 µg/mL | > 32 µg/mL | > 32 µg/mL | > 32 µg/mL | > 32 µg/mL | > 32 µg/mL | > 32 µg/mL | > 32 µg/mL
14 | Cc1cccc(N2CCC(c3nc4ccccc4n3C)C2)c1C (centres undefined) | > 32 µg/mL | 6.2% | > 32 µg/mL | > 32 µg/mL | > 32 µg/mL | 5.4% | > 32 µg/mL | > 32 µg/mL | > 32 µg/mL | > 32 µg/mL | > 32 µg/mL | > 32 µg/mL | > 32 µg/mL | > 32 µg/mL
15 | Cc1cccc(NC(=O)c2nc3ccccc3n2C)c1C | > 32 µg/mL | 8.9% | > 32 µg/mL | > 32 µg/mL | > 32 µg/mL | 5.2% | > 32 µg/mL | > 32 µg/mL | > 32 µg/mL | > 32 µg/mL | > 32 µg/mL | > 32 µg/mL | > 32 µg/mL | > 32 µg/mL
16 | Cc1c(Br)cccc1N1CC(c2nc3ccccc3[nH]2)CC1=O (centres undefined) | > 32 µg/mL | 36.6% | > 32 µg/mL | > 32 µg/mL | > 32 µg/mL | 11.6% | > 32 µg/mL | > 32 µg/mL | > 32 µg/mL | > 32 µg/mL | > 32 µg/mL | > 32 µg/mL | > 32 µg/mL | > 32 µg/mL
17 | COc1cccc(N2CC(c3nc4ccccc4n3C)CC2=O)c1OC (centres undefined) | > 32 µg/mL | 45.2% | > 32 µg/mL | > 32 µg/mL | > 32 µg/mL | 3.8% | > 32 µg/mL | > 32 µg/mL | > 32 µg/mL | > 32 µg/mL | > 32 µg/mL | > 32 µg/mL | > 32 µg/mL | > 32 µg/mL
18 | Cn1c(C2CC(=O)N(C3CCCCC3)C2)nc2ccccc21 (centres undefined) | > 32 µg/mL | 43.7% | > 32 µg/mL | > 32 µg/mL | > 32 µg/mL | 3.2% | > 32 µg/mL | > 32 µg/mL | > 32 µg/mL | > 32 µg/mL | > 32 µg/mL | > 32 µg/mL | > 32 µg/mL | > 32 µg/mL
19 | Cn1c(C2CC(=O)N(CCc3ccccc3)C2)nc2ccccc21 (centres undefined) | > 32 µg/mL | 3.9% | > 32 µg/mL | > 32 µg/mL | > 32 µg/mL | 5.8% | > 32 µg/mL | > 32 µg/mL | > 32 µg/mL | > 32 µg/mL | > 32 µg/mL | > 32 µg/mL | > 32 µg/mL | > 32 µg/mL
20 | Cn1c(C(=O)Nc2cccc(C(=O)NCc3ccccc3)c2)nc2ccccc21 | > 32 µg/mL | 4% | > 32 µg/mL | > 32 µg/mL | > 32 µg/mL | 6.8% | > 32 µg/mL | > 32 µg/mL | > 32 µg/mL | > 32 µg/mL | > 32 µg/mL | > 32 µg/mL | > 32 µg/mL | > 32 µg/mL
21 | Cn1c(C(=O)NCc2ccccc2)nc2ccccc21 | > 32 µg/mL | 4.7% | > 32 µg/mL | > 32 µg/mL | > 32 µg/mL | 6.2% | > 32 µg/mL | > 32 µg/mL | > 32 µg/mL | > 32 µg/mL | > 32 µg/mL | > 32 µg/mL | > 32 µg/mL | > 32 µg/mL
